Results from US20150105252A1, “SUBSTITUTED PYRAZOLES AS HERBICIDES” (E I DU PONT DE NEMOURS AND COMPANY, priority 2013, published 2015).

Tests used:
[1] = system: morningglory; test: Test A postemergence; assay type: in vivo, Ipomoea spp.
In short: (§1)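 Both timings tested concurrently in loam/sand soil: preemergence by directed soil spray, postemergence on plants of 2–10 cm at the one- to two-leaf stage. Greenhouse holding period was approximately 10 days before visual injury assessment (0–100, 0 = no effect).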

[2] = system: crabgrass, large; test: Test A postemergence; assay type: in vivo, Digitaria sanguinalis
In short: as §1

[3] = system: morningglory; test: Test A preemergence; assay type: in vivo, Ipomoea spp.
In short: as §1

[4] = system: foxtail, giant; test: Test A postemergence; assay type: in vivo, Setaria faberii
In short: as §1

[5] = system: wheat; test: Test A preemergence; assay type: in vivo, Triticum aestivum; conditions: preemergence
In short: as §1

[6] = system: wheat; test: Test A postemergence; assay type: in vivo, Triticum aestivum
In short: as §1

[7] = system: crabgrass, large; test: Test A preemergence; assay type: in vivo, Digitaria sanguinalis
In short: as §1

[8] = system: rice; test: Test B flood; assay type: in vivo, Oryza sativa; conditions: 250 g ai/ha, visual rating on 0 to 100 scale (0 no effect, 100 complete control), 13 to 15 days
In short: (§2)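 Response scored visually, 0–100 relative to controls, 13–15 days after the compound was applied into paddy water; plants were at the 2-leaf stage in pots kept flooded to 3 cm.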

[9] = system: barnyardgrass; test: Test A preemergence; assay type: in vivo, Echinochloa crus-galli
In short: as §1

[10] = system: pigweed; test: Test A postemergence; assay type: in vivo, Amaranthus retroflexus
In short: as §1

[11] = system: foxtail, giant; test: Test A preemergence; assay type: in vivo, Setaria faberii
In short: as §1

[12] = system: ducksalad; test: Test B flood; assay type: in vivo, Heteranthera limosa; conditions: 250 g ai/ha, visual rating on 0 to 100 scale (0 no effect, 100 complete control), 13 to 15 days
In short: as §2

[13] = system: pigweed; test: Test A preemergence; assay type: in vivo, Amaranthus retroflexus
In short: as §1

[14] = system: barnyardgrass; test: Test A postemergence; assay type: in vivo, Echinochloa crus-galli
In short: as §1

[15] = system: velvetleaf; test: Test A preemergence; assay type: in vivo, Abutilon theophrasti
In short: as §1

[16] = system: barnyardgrass; test: Test B flood; assay type: in vivo, Echinochloa crus-galli; conditions: 250 g ai/ha, visual rating on 0 to 100 scale (0 no effect, 100 complete control), 13 to 15 days
In short: as §2

[17] = system: velvetleaf; test: Test A postemergence; assay type: in vivo, Abutilon theophrasti
In short: as §1

[18] = system: corn; test: Test A preemergence; assay type: in vivo, Zea mays
In short: as §1

[19] = system: corn; test: Test A postemergence; assay type: in vivo, Zea mays
In short: as §1

[20] = system: sedge, umbrella; test: Test B flood; assay type: in vivo, Cyperus difformis; conditions: 250 g ai/ha, visual rating on 0 to 100 scale (0 no effect, 100 complete control), 13 to 15 days
In short: as §2

[21] = Postemergence, 500 g ai/ha, visual rating after approx. 10 days, 0 to 100 scale (0 no effect, 100 complete control)
[22] = postemergence, 125 g ai/ha, about 10 days, visual rating on 0 to 100 scale (0 no effect, 100 complete control)
[23] = Preemergence, 500 g ai/ha, 0 to 100 scale, 0 no effect, 100 complete control
[24] = preemergence, 125 g ai/ha, visual injury, 0 to 100 scale, approx. 10 days
[25] = 125 g ai/ha, visual injury, 0 to 100 scale, approx. 10 days
[26] = 500 g ai/ha, visual injury after approx. 10 days, 0 to 100 scale (0 no effect, 100 complete control)
[27] = Postemergence, 125 g ai/ha, 0 to 100 scale, 0 no effect, 100 complete control
[28] = Postemergence, 500 g ai/ha, 0 to 100 scale (0 no effect, 100 complete control)
[29] = preemergence, 125 g ai/ha, visual injury approx. 10 days after treatment
[30] = preemergence, 500 g ai/ha, visual injury after approx. 10 days, 0 to 100 scale (0 no effect, 100 complete control)

Q: Which results are given for `CCCNC(=O)c1cc(CC)n(Oc2ccnc(C(F)(F)F)c2)n1` [Compound 82]?
A: Morningglory plant response rating [1, 21]: 60; Morningglory plant response rating [1, 22]: 50; Crabgrass, Large plant response rating [2, 21]: 60; Crabgrass, Large plant response rating [2, 22]: 30; Morningglory plant response rating [3, 23]: 50; Morningglory plant response rating [3, 24]: 10; Foxtail, Giant plant response rating [4, 21]: 60; Foxtail, Giant plant response rating [4, 22]: 10; Wheat plant response rating [5, 25]: 10; Wheat plant response rating [5, 26]: 60; Wheat plant response rating [6, 21]: 50; Wheat plant response rating [6, 22]: 0; Crabgrass, Large plant response rating [7, 23]: 100; Crabgrass, Large plant response rating [7, 24]: 70; Plant response rating, Rice [8]: 0; Barnyardgrass plant response rating [9, 23]: 80; Barnyardgrass plant response rating [9, 24]: 30; Pigweed plant response rating [10, 21]: 30; Pigweed plant response rating [10, 22]: 10; Foxtail, Giant plant response rating [11, 23]: 100; Foxtail, Giant plant response rating [11, 24]: 40; Plant response rating, Ducksalad [12]: 30; Pigweed plant response rating [13, 23]: 60; Pigweed plant response rating [13, 24]: 0; Barnyardgrass plant response rating [14, 27]: 20; Barnyardgrass plant response rating [14, 21]: 50; Velvetleaf plant response rating [15, 23]: 20; Velvetleaf plant response rating [15, 24]: 0; Plant response rating, Barnyardgrass [16]: 0; Velvetleaf plant response rating [17, 21]: 20; Velvetleaf plant response rating [17, 22]: 10; Corn plant response rating [18, 23]: 60; Corn plant response rating [18, 24]: 20; Corn plant response rating [19, 21]: 60; Corn plant response rating [19, 22]: 20; Plant response rating, Sedge, Umbrella [20]: 75

Q: What does the source list for `CCCCc1cc(C(=O)NOCC)nn1Cc1ccnc(C(F)(F)F)c1` [Compound 152]?
A: Morningglory plant response rating [1, 28]: 60; Morningglory plant response rating [1, 22]: 40; Crabgrass, Large plant response rating [2, 28]: 60; Crabgrass, Large plant response rating [2, 22]: 10; Morningglory plant response rating (0 to 100 scale) [3, 29]: 0; Morningglory plant response rating [3, 30]: 20; Foxtail, Giant plant response rating [4, 28]: 40; Foxtail, Giant plant response rating [4, 22]: 10; Wheat plant response rating (0 to 100 scale) ([5]; 125 g ai/ha, visual injury approx. 10 days after treatment): 0; Wheat plant response rating [5, 26]: 0; Wheat plant response rating [6, 28]: 0; Wheat plant response rating [6, 22]: 0; Crabgrass, Large plant response rating (0 to 100 scale) [7, 29]: 40; Crabgrass, Large plant response rating [7, 30]: 80; Plant response rating, Rice [8]: 0; Barnyardgrass plant response rating [9, 24]: 0; Barnyardgrass plant response rating [9, 30]: 60; Pigweed plant response rating [10, 28]: 80; Pigweed plant response rating [10, 22]: 60; Foxtail, Giant plant response rating (0 to 100 scale) [11, 29]: 10; Foxtail, Giant plant response rating [11, 30]: 60; Plant response rating, Ducksalad [12]: 0; Pigweed plant response rating (0 to 100 scale) [13, 29]: 100; Pigweed plant response rating [13, 30]: 100; Barnyardgrass plant response rating [14, 28]: 50; Barnyardgrass plant response rating [14, 22]: 10; Velvetleaf plant response rating (0 to 100 scale) [15, 29]: 0; Velvetleaf plant response rating [15, 30]: 20; Plant response rating, Barnyardgrass [16]: 0; Velvetleaf plant response rating [17, 28]: 60; Velvetleaf plant response rating [17, 22]: 20; Corn plant response rating (0 to 100 scale) [18, 29]: 0; Corn plant response rating [18, 30]: 0; Corn plant response rating [19, 28]: 30; Corn plant response rating [19, 22]: 10; Plant response rating, Sedge, Umbrella [20]: 0

Q: Which results are given for `CCc1cc(C(=O)Nc2ccc(F)cc2)nn1Oc1ccnc(C(F)(F)F)c1` [Compound 89]?
A: Morningglory plant response rating [1, 21]: 0; Morningglory plant response rating [1, 22]: 0; Crabgrass, Large plant response rating [2, 21]: 0; Crabgrass, Large plant response rating [2, 22]: 0; Morningglory plant response rating [3, 24]: 0; Morningglory plant response rating [3, 30]: 0; Foxtail, Giant plant response rating [4, 21]: 0; Foxtail, Giant plant response rating [4, 22]: 0; Wheat plant response rating [5, 25]: 0; Wheat plant response rating [5, 26]: 0; Wheat plant response rating [6, 21]: 0; Wheat plant response rating [6, 22]: 0; Crabgrass, Large plant response rating [7, 24]: 0; Crabgrass, Large plant response rating [7, 30]: 10; Plant response rating, Rice [8]: 0; Barnyardgrass plant response rating [9, 24]: 0; Barnyardgrass plant response rating [9, 30]: 0; Pigweed plant response rating [10, 21]: 0; Pigweed plant response rating [10, 22]: 0; Foxtail, Giant plant response rating [11, 24]: 0; Foxtail, Giant plant response rating [11, 30]: 10; Plant response rating, Ducksalad [12]: 0; Pigweed plant response rating [13, 24]: 0; Pigweed plant response rating [13, 30]: 0; Barnyardgrass plant response rating [14, 27]: 0; Barnyardgrass plant response rating [14, 21]: 0; Velvetleaf plant response rating [15, 24]: 0; Velvetleaf plant response rating [15, 30]: 0; Plant response rating, Barnyardgrass [16]: 0; Velvetleaf plant response rating [17, 21]: 0; Velvetleaf plant response rating [17, 22]: 0; Corn plant response rating [18, 24]: 0; Corn plant response rating [18, 30]: 0; Corn plant response rating [19, 21]: 20; Corn plant response rating [19, 22]: 0; Plant response rating, Sedge, Umbrella [20]: 0
